Earlier results as cited in patent EP1577823B1, “A method for identifying unknown proteins by a two-dimensional separation step and the use of markers” (CENTRE NATIONAL DE LA RECHERCHE SCIENTIFIQUE (CNRS), priority 2004, dated 2005).

Conditions: pKa value of the positively or negatively charged amino acid side chain

| SMILES | pKR |
| --- | --- |
| N=C(N)NCCC[C@H](N)C(=O)O [Arginine] | 12,5 |
| N[C@@H](Cc1c[nH]cn1)C(=O)O [Histidine] | 6 |
| NCCCC[C@H](N)C(=O)O [Lysine] | 10,8 |
| N[C@@H](Cc1ccc(O)cc1)C(=O)O [Tyrosine] | 10,1 |

More lines, now with the values ahead:

| pKR | SMILES |
| --- | --- |
| 8,3 | N[C@@H](CS)C(=O)O [Cysteine] |
| 4,3 | N[C@@H](CCC(=O)O)C(=O)O [Glutamic acid] |
| 13 | N[C@@H](CO)C(=O)O [Serine] |
| 13 | C[C@@H](O)[C@H](N)C(=O)O [Threonine] |
